Values of other authors, collected in US9375441B2, “Lactulose for bowel evacuation” (Cumberland Pharmaceuticals, priority 2011, dated 2016).

How the values were obtained:
[1] = tested on: patients at increased risk for colorectal cancer
[2] = not given; remark: listed apart in the source
[3] = tested on: patients with a history of chronic constipation

Structure (SMILES): OC[C@H]1O[C@@H](O[C@@H]2[C@@H](CO)O[C@](O)(CO)[C@H]2O)[C@H](O)[C@@H](O)[C@H]1O [lactulose, 4-O-b-D-Galactopyranosyl-D-fructofuranose]
- patients with diarrhea sometime during the bowel preparation, % ([1]; 12 g lactulose powder once per day from 48 hours before MR colonography): 38%
- patients with diarrhea sometime during the bowel preparation, number ([1]; 12 g lactulose powder once per day from 48 hours before MR colonography, low-fiber diet, oral gadolinium contrast): 77
- patients in whom diarrhea occurred just prior to imaging, number ([1]; of the 77 patients with diarrhea): 48
- solubility in water: freely soluble
- state in which oral doses reach the colon ([2]; no hydrolysing enzyme in human gastrointestinal tissue): virtually unchanged
- absorption from the gastrointestinal tract ([2]; oral): poorly absorbed
- number of bowel movements per day and number of days on which bowel movements occur [3]: increases
